According to patent publication US20110206781A1, “METHOD TO MODULATE HEMATOPOIETIC STEM CELL GROWTH” (priority 2008, published 2011):

Legend:
[1] = tested on: runx1/cmyb+ HSCs in the zebrafish AGM; assay: runx1/cmyb in situ hybridization for HSC formation in zebrafish embryos at 36 hpf; format: in vivo; design: effect on HSC formation at 36 hpf when treatment occurred before the onset of heartbeat: dose or concentration left out as unconfirmed
From the text: In Situ Hybridizataion: Paraformaldehyde-fixed embryos were processed for in situ hybridization according to standard zebrafish protocols. Such protocols are available on-line through the The Zebrafish Model Organism Database. The following RNA probes were used: runx1, cmyb, flk1, ephrinB2, flt4, globin, mpo, mhc, and foxa3. Changes in expression compared to WT controls are reported as the number altered/number scored per genotype/treatment (North et al., 2007); a minimum of three independent experiments was conducted per analysis.
Chemical Exposure: Zebrafish embryos were exposed to chemicals at the doses indicated; dimethyl sulfoxide (DMSO) carrier content was 0.1%. For evaluation of HSC development, exposure ranged from early somitogenesis (5+ somites) until 36 hpf, unless otherwise noted.
(§1) Morpholino injection: Morpholino antisense oligonucleotides (MO; GENETOOLS, LLC, Philomath, Oreg.) designed against the ATG and exonl splice sites of nos1 (5′-[…] [SEQ. ID NO:1]; 5′-[…] [SEQ ID NO:2), nos2 (5′-[…] [SEQ ID NO:3]; 5′-[…] [SEQ ID NO:4]), and mismatched controls were injected into one-cell-stage embryos.

HSCs = assay: in vivo confocal imaging of HSC number in cmyb:GFP; lmo2:dsRed embryos; design: species or system zebrafish; conditions: lmo2:dsRed reporter fish, p<0.001, n=5
Protocol: Confocal Microscopy: Fluorescent reporter embryos were exposed to blood flow modulators (10 μM, unless otherwise noted) as indicated, live embedded in 1% agarose, and imaged with a Zeiss LSM510 Meta confocal microscope at 36 hpf (North et al., 2007) or a Perkin Elmer UltaVIEW VoX spinning disk confocal microscope.

nos1 = assay: blastula transplantation of cmyb:GFP donor cells into lmo2:dsRed recipients; format: in vivo, zebrafish; conditions: 36 hpf, p=0.0065
Protocol: Blastula Transplantation: cmyb: GFP embryos were injected with nos1 or control MO at the one-cell stage. At the blastula stage, 100 cells were removed from the donor embryo and transplanted into stage-matched recipients. Embryos were analyzed by confocal microscopy at 36 hpf.
as §1

For `N=C(N)NCCC[C@H](N)C(=O)O` [L-arg, L-arginine], the “effect on the sih hematopoietic defect (runx1/cmyb), in words” value ([1]; sih−/− embryos, 36 hpf) was “rescued the sih hematopoietic defect” and the “effect on HSCs (runx1/cmyb), in words” value ([1]; wild-type embryos, 36 hpf, bradykinin 10 μM) was “increased HSCs”.
In the case of `CC(=O)N[C@H](C(=O)O)C(C)(C)SN=O` [SNAP, S-nitroso-N-acetyl-penicillamine], the “effect on HSC formation at 36 hpf when treatment occurred before the onset of heartbeat” value ([1]; exposure 10 somites-23 hpf) is reported as “capable of enhancing HSC number” and the “HSC number by confocal microscopy” value (HSCs) is reported as “increased HSC numbers”.
“nos1 ATG MO: morpholino antisense oligonucleotide against the ATG site of nos1, 5′-ACGCTGGGCTCTGATTCCTGCATTG, SEQ ID NO:1 (all phosphorodiamidate morpholino (PMO))” was tested, and the “donor cell contribution to GFP+ HSC formation in transplanted embryos” value (nos1) was “none”.
